The test system of test [1] is Na Channel. In kind it is binding. The following applies: 0.1 mM l-menthol; Rat whole brain.
For test [2], the target named is Bradykinin B2 receptor (Human) (Homo sapiens, UniProt P30411). Put plainly: [3H]-Bradykinin binding assay. The following applies: 0.1 mM l-menthol; Human recombinant.
The target of test [3] is α2C-Adrenergic receptor (Human) (Homo sapiens, UniProt P18825). Put plainly: [3H]-Rauwolscine hydrochloride binding assay. Conditions: 0.1 mM l-menthol; Human recombinant.
α2C-Adrenergic receptor (Human), sequence (P18825 whole entry): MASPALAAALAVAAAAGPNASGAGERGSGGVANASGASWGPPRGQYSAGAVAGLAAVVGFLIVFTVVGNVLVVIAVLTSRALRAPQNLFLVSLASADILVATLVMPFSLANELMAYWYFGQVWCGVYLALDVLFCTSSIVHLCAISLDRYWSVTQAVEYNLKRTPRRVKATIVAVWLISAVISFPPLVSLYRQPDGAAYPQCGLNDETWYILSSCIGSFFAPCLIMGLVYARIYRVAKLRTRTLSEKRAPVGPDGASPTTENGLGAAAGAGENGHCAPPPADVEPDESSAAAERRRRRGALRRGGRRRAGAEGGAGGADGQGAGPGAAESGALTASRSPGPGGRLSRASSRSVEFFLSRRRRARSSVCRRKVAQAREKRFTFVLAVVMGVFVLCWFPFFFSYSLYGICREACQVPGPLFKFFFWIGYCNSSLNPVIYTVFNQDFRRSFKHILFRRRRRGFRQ
The target of test [4] is Opiate ORL1 receptor (Human) (Homo sapiens, UniProt P41146). As to the kind of experiment: [3H]-Nociceptin binding assay. The following applies: 0.1 mM l-menthol; Human recombinant.
Opiate ORL1 receptor (Human), sequence (P41146 whole entry): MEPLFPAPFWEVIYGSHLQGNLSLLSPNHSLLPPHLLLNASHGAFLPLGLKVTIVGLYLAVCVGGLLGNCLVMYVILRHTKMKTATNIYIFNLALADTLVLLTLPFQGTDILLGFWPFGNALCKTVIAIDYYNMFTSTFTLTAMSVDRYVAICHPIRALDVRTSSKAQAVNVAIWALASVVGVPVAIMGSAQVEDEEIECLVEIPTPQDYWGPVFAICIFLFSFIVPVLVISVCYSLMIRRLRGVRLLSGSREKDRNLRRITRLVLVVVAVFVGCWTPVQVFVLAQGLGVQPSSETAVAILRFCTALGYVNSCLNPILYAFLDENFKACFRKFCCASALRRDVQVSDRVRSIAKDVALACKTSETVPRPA
Test [5] has as its target Glutamate receptor (NMDAglycine site) (Rattus norvegicus, UniProt P35439). Put plainly: [3H]-MDL105,519 binding assay. Conditions: 0.1 mM l-menthol; Rat cerebral cortex.
For test [6], the system named is K Channel KATP. As to the kind of experiment: [3H]-Glybenclamide binding assay. Conditions: 0.1 mM l-menthol; Rat whole brain.
For test [7], the system named is GABA A receptor (Agonist site). Put plainly: [3H]-Muscimol binding assay. The following applies: 0.1 mM l-menthol; Rat cerebellum.
For test [8], the system named is Ca channel (Type L, Benzothiazepine). Put plainly: [3H]-. Type of test: binding. The following applies: 0.1 mM l-menthol; Rat cerebral cortex.
The test system of test [9] is Glutamate receptor (AMPA). Put plainly: D,L-alpha-[3H]-Amino-3-Hydroxy-Methylisoxazole-4-Propionic Acid. The following applies: 0.1 mM l-menthol; Rat cerebral cortex. In kind it is binding.
The subject of test [10] is Glycine receptor (Strychnine sensitive). In kind it is binding. The following applies: 0.1 mM l-menthol; Rat spinal cord.
Test [11] has as its target Muscarinic M1 receptor (Human) (Homo sapiens, UniProt P11229). As to the kind of experiment: [3H]-Scopolamine Methyl Chloride binding assay. The following applies: 0.1 mM l-menthol; Human recombinant.
Test [12] deals with Muscarinic M4 receptor (Human) (Homo sapiens, UniProt P08173). Put plainly: [3H]-Scopolamine Methyl Chloride binding assay. The following applies: 0.1 mM l-menthol; Human recombinant.
Muscarinic M4 receptor (Human), sequence (P08173 whole entry): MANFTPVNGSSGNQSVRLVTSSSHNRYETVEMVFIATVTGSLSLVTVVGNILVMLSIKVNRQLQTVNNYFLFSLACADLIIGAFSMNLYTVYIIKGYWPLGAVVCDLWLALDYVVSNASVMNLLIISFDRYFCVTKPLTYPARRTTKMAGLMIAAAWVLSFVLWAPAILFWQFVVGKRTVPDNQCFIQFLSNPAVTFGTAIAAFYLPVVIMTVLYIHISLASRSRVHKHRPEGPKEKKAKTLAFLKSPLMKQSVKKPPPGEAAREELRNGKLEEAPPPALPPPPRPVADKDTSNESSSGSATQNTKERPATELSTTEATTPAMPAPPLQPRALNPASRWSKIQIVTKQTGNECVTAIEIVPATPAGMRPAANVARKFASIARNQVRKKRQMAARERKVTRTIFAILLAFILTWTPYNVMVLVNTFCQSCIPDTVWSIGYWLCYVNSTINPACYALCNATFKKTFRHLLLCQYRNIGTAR
Test [13] addresses Vasopressin V1B receptor (Human) (Homo sapiens, UniProt P47901). Put plainly: [3H]-Vasopressin, 8-L-Arginine binding assay. Conditions: 0.1 mM l-menthol; Human recombinant.

Glutamate receptor (NMDAglycine site), sequence (P35439 394-800 limits assumed): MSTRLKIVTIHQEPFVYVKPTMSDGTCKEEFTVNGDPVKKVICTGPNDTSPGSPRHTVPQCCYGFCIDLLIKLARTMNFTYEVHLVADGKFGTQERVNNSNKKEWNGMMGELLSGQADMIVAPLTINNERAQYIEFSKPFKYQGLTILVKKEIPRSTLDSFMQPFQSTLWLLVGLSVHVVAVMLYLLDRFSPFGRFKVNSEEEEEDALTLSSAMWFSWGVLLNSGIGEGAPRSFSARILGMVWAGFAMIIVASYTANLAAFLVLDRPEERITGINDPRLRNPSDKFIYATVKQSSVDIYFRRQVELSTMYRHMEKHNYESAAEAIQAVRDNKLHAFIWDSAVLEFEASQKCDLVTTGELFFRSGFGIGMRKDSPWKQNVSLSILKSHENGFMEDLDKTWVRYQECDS
Vasopressin V1B receptor (Human), sequence (P47901 whole entry): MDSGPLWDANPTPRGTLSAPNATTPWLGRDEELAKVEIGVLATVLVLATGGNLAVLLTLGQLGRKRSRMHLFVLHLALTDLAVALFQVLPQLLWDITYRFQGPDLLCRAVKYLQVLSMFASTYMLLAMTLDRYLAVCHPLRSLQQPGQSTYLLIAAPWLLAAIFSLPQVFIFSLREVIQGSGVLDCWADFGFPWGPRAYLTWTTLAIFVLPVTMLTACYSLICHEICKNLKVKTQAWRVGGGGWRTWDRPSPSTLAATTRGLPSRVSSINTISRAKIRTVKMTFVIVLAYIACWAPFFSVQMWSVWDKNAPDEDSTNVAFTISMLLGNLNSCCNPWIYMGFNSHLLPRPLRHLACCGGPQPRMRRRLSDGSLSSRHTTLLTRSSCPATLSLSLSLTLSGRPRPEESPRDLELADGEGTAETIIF
Bradykinin B2 receptor (Human), sequence (P30411 whole entry): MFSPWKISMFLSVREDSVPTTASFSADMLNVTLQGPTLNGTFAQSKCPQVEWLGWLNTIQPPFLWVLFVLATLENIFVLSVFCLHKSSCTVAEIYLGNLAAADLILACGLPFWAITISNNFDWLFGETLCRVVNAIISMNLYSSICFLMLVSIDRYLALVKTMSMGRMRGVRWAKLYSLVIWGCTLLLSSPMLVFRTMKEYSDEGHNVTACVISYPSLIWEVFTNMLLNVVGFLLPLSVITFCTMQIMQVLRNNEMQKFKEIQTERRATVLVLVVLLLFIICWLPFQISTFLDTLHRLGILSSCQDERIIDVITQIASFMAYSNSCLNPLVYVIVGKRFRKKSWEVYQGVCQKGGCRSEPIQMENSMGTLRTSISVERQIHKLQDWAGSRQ
Muscarinic M1 receptor (Human), sequence (P11229 whole entry): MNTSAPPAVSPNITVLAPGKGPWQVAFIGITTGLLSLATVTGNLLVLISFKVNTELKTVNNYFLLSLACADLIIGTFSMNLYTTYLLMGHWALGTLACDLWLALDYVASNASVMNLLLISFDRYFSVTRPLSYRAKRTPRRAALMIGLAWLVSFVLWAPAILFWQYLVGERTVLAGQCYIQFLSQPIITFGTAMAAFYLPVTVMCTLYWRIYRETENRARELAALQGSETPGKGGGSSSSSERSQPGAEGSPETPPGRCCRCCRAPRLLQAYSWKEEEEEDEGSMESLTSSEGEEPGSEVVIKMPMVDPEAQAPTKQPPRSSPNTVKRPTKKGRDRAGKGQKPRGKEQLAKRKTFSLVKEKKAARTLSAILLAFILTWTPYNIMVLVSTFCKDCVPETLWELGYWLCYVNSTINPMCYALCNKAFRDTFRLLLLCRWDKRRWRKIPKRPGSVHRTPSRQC

`CC(C)[C@@H]1CC[C@@H](C)C[C@H]1O` [l-menthol]: the “Inhibition by l-Menthol (%)” value amounted to 14.04% in test [1]; 7.88% in [2]; 7.75% in [3]; 5.76% in test [4]; 2.56% in [5]; 2.08% in test [6]. Also, the “Inhibition by l-Menthol (%)” value in test [7] is 0.2%; in [8] it was 0%; in [9], 0%; in test [10] it was 0%; in test [11] it was 0%; in test [12] it was 0%. In [13], the “Inhibition by l-Menthol (%)” value was determined as 0%.

Values taken from publication PMC8237303 (Heliyon, 2021).
